For data set [1], the system named is human fetal lung fibroblasts (FL3). As to the kind of experiment: Quantitative RT-PCR of lncRNA expression, doxorubicin time course. The data set is classed as cell-based. Particulars: 24 hour time course. Here is the method:
Total RNA was extracted from cells using the TRIzol reagent (Invitrogen) and the RNeasy Mini Kit (Qiagen), and genomic DNA was eliminated using TURBO DNA-free (Ambion). RT-PCR using 50-250 ng of total RNA was performed using the One-Step RT-PCR Master Mix (Applied Biosystems) using TaqMan Gene Expression Assays and normalized to GAPDH. Strand-specific RT-PCR for PANDA was performed using the One-Step RT-PCR Master Mix SYBR Green (Stratagene)).
A panel of TaqMan custom ncRNA assays was developed targeting 60 of the 219 new transcribed regions using the ‘single-exon’ design mode. The transcript specificity and genome specificity of all TaqMan assays were verified using a position-specific alignment matrix to predict potential cross reactivity between designed assays and genome-wide nontarget transcripts or genomic sequences. […]
Our co-expression maps predicted associations of several lncRNAs with DNA damage response pathways (FIG. 3C and FIG. 11). […] In order to confirm whether these lncRNAs may be responsive to DNA damage, we measured the expression changes of 60 lncRNAs predicted in the DNA damage pathway (as well as upst:CDKN1A:−800) by quantitative RT-PCR in human fetal lung fibroblasts treated with doxorubicin over a 24 hour time course. […]

Data set [2] has the same test system. Kind of data set: TUNEL assay. The data set is classed as cell-based. The settings on record: FL3 cells exposed to control siRNA. Here is the method:
TUNEL assays were performed using the in situ Cell Death Detection Kit, TMR Red (Roche). Human fetal lung fibroblasts were cultured on chamber slides (Lab-Tek), treated with 200 ng/ml doxorubicin (Sigma) for 24 hours, fixed with methanol at −20° C. for 10 minutes and incubated with the TUNEL labeling mixture for 1 hour at 37° C. Slides were then washed with PBS and mounted in Prolong Gold antifade reagent with DAPI (Invitrogen) and imaged at 20× magnification.

Data set [3] concerns human fetal lung fibroblasts. Kind of data set: Custom tiling array RNA hybridization (ncRNA expression). The data set is classed as cell-based. The settings on record: doxorubicin-treated human fetal lung fibroblasts; tiling array and qRT-PCR; of 216 ncRNAs. The text has this:
A custom tiling array (Roche NimbleGen) was designed at 5 bp resolution across 25 kb of the 9p21 region (which encompasses CDKN2A, P14ARF and CDKN2B), as well as from 10 kb upstream to 2 kb downstream of each TSS from 53 other cell-cycle genes, including those encoding cyclins, CDKs and CDKIs (Table 1). In addition, the HOXA and HOXD loci were placed on the array as a control. Briefly, RNA was amplified (MessageAmp Kit, Ambion), reverse transcribed (RETROscript Kit, Ambion), labeled and hybridized according to the standard NimbleGen protocol.
Robust multichip average normalized single channel data from each array were subjected to peak calling using the NimbleScan program (Roche NimbleGen) with a window size of 50. Peaks with a peak score greater than ten were considered significant transcriptional units. […]
A peak calling algorithm searched for statistically significant signals above background and detected contiguous regions (peaks) of at least 50 bp. […] Averaging the signal intensity across all probes in a peak produced a quantitative estimate of transcript abundance. Despite possible 3′ bias caused by polyadenylated RNA selection, our procedure detected exon 1 transcription from the majority of cell-cycle coding genes (41 of the 56), showing that this custom tiling array can detect previously reported transcribed regions. […]
On the technique in general: Real-time PCR tracks product formation cycle by cycle.

Data set [4] concerns the target T1, NF-YA (Homo sapiens, UniProt P23511).
T1 construct: RNA chromatography of PANDA from doxorubicin-treated FL3 cell lysates; endogenous in cells; host or cells: doxorubicin-treated human fetal lung fibroblasts (FL3)
As to the kind of experiment: RNAse mediated RNA chromatography. Particulars: in vitro transcribed RNA; lysates of doxorubicin-treated human fibroblasts. The data set is classed as binding. The protocol: (§1) RNAse mediated RNA chromatography (Michlewski et al. (2010) RNA 16:1673-1678, herein incorporated by reference in its entirety) was performed as previously described with the following modifications: 6 pmols of RNA (PANDA or a 1.2-kb fragment of LacZ) were used per reaction. RNA was folded (90° C. for 2 minutes, ice for 2 minutes), supplied with RNA structure buffer (Ambion) and shifted to room temperature (22-25° C.) for 20 minutes before conjugation to beads. RNAse digestion was performed with 5 μl of RNase A/T1 cocktail (Ambion) and 2 μl of RNase V1 (Ambion). Cellular lysates were prepared as follows: 10 million doxorubicin treated cells (16 hours) were incubated in 200 μl PBS, 600 μl H20 and 200 μl nuclear lysis buffer (1.28 M sucrose; 40 mM Tris-HCl pH 7.5; 20 mM MgCl2; 4% Triton X-100) on ice for 20 minutes. Nuclei were pelleted by centrifugation at 2,500 g for 15 minutes. The nuclear pellet was resuspended in 1 ml RIP buffer (150 mM KCl, 25 mM Tris pH 7.4, 0.5 mM DTT, 0.5% NP40, 1 mM PMSF and protease inhibitor (Roche Complete Protease Inhibitor Cocktail Tablets)). Resuspended nuclei were sheared using a motorized douncer for 5 seconds. Nuclear membrane and debris were pelleted by centrifugation at 18,000 g for 10 minutes.
(§2) Core promoters of cell death genes downstream of p53 are distinguished from other p53 target genes by the binding site for the transcription factor NF-YA (Morachis et al. (2010) Genes Dev. 24:135-147), and we reasoned that PANDA may affect NF-YA function. […] NF-YA is a nuclear transcription factor that activates the p53-responsive promoter of FAS upon DNA damage (Morachis et al. (2010) Genes Dev. 24:135-147). […] Thus, PANDA binding to NF-YA may evict or prevent NF-YA binding to chromatin. […] CDKN1A mRNA produces p21 to mediate arrest, whereas PANDA impedes NF-YA activation of apoptotic gene expression program (FIG. 8).

The target in a further data set is T2, EZH2 (Homo sapiens, UniProt Q15910).
T2 construct: RNA chromatography of PANDA from doxorubicin-treated FL3 cell lysates; endogenous in cells; host or cells: doxorubicin-treated human fetal lung fibroblasts (FL3)
As to the kind of experiment: RNAse mediated RNA chromatography. The data set is classed as binding. The settings on record: lysates of doxorubicin-treated human fibroblasts. The protocol:
as §1, §2

The next data set deals with T3, p21 (Homo sapiens, UniProt P38936).
T3 construct: RNA chromatography of PANDA from doxorubicin-treated FL3 cell lysates; endogenous in cells; host or cells: doxorubicin-treated human fetal lung fibroblasts (FL3)
As to the kind of experiment: RNAse mediated RNA chromatography. The data set is classed as binding. The settings on record: lysates of doxorubicin-treated human fibroblasts. The protocol:
as §1, §2

The target of another data set is T4, LSD1 (Homo sapiens, UniProt O60341).
T4 construct: RNA chromatography of PANDA from doxorubicin-treated FL3 cell lysates; endogenous in cells; host or cells: doxorubicin-treated human fetal lung fibroblasts (FL3)
Kind of data set: RNAse mediated RNA chromatography. The data set is classed as binding. Particulars: lysates of doxorubicin-treated human fibroblasts. Here is the method: as §1, §2

The target in data set [5] is T1, NF-YA. Kind of data set: RNA immunoprecipitation of NF-YA. The settings on record: doxorubicin-treated primary human lung fibroblasts, qRT-PCR. The data set is classed as binding. The protocol: Ten million cells were treated with 200 ng/ml doxorubicin for 16 hours, trypsinized and crosslinked with 1% formaldehyde for 10 minutes, followed by the addition of 0.125 M glycine for 5 minutes. After two PBS washes, cells were lysed with 2× volume of Buffer A (10 mM HEPES pH 7.5, 1.5 mM MgCl2, 10 mM KCl, 0.5 mM DTT, 1 mM PMSF) for 15 minutes on ice at 150 r.p.m. NP-40 was added to a final concentration of 0.25% for 5 minutes on ice. Lysates were centrifuged for 3 minutes at 2,000 r.p.m., and the supernatant (cytosol) was collected. Next, an equal volume of Buffer C as that used of Buffer A was added to the pellet for 20 minutes with frequent vortex (20 mM HEPES pH 7.5, 10% glycerol, 0.42 M KCl, 4 mM MgCl2, 0.5 mM DTT, and 1 mM PMSF). Nuclear lysates were dounced for 5 seconds using a motorized pestle and sonicated for 7 minutes using a Diagenode Sonicator (30 seconds on, 30 seconds off, power setting H). Nuclear and cytoplasmic lysates were combined and centrifuged for 15 minutes at 13,000 r.p.m. Supernatants were transferred into micro spin columns (Pierce 89879), and 2 μg of antibody was added and incubated overnight. We washed 10 μl of Protein A/G UltraLink Resin (Pierce 53132) three times with RIP wash buffer (50 mM TrisHcl pH 7.9, 10% glycerol, 100 mM KCl, 5 mM MgCl2, 10 mM B-me and 0.1% NP-40) and added it to the immunoprecipitation reaction for 1 hour at 4° C. […]

T1 sequence (P23511 whole entry): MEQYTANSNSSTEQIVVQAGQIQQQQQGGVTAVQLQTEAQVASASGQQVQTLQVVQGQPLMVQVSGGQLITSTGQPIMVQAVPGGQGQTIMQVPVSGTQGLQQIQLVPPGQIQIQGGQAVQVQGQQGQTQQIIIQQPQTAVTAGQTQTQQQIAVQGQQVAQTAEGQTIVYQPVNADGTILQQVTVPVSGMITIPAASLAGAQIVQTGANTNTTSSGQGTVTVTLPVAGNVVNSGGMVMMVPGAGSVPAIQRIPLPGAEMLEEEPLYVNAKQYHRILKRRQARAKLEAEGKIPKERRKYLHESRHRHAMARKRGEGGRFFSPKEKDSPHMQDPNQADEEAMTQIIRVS
T3 sequence (P38936 whole entry): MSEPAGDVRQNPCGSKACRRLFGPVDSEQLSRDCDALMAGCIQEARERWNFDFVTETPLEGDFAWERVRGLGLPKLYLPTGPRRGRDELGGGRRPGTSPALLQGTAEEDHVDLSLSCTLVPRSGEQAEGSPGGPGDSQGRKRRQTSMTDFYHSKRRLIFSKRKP
T2 sequence (Q15910 whole entry): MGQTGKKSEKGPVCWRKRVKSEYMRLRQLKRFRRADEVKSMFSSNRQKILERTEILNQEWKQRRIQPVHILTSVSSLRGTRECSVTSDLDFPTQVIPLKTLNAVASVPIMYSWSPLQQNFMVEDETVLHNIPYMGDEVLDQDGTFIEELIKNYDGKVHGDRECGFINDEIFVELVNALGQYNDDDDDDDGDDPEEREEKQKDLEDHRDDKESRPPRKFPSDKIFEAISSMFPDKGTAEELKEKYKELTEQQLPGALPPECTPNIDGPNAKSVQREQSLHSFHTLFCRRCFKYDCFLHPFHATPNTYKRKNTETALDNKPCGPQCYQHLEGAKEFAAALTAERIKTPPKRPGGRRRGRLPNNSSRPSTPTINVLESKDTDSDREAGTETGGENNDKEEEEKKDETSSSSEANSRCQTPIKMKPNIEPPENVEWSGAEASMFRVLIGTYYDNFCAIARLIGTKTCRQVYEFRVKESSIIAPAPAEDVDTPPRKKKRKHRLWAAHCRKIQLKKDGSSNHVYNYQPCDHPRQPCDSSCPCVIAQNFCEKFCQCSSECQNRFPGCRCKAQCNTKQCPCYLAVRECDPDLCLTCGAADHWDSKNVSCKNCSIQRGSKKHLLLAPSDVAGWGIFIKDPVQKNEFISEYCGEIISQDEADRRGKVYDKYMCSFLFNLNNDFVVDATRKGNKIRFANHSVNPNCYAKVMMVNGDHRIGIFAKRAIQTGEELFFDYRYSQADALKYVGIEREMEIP
T2 sequence (O75530 whole entry partner): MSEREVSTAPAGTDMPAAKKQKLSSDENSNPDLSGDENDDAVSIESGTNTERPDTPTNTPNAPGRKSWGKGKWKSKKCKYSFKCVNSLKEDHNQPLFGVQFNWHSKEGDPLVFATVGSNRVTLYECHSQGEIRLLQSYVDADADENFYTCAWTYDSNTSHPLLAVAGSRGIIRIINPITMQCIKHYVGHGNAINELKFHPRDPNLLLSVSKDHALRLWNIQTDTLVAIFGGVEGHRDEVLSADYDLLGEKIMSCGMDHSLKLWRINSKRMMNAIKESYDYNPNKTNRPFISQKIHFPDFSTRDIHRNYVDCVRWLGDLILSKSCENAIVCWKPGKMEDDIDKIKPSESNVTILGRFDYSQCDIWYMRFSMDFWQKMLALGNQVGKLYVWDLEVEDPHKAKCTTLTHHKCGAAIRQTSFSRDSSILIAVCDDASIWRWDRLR
T2 sequence (Q15022 whole entry partner): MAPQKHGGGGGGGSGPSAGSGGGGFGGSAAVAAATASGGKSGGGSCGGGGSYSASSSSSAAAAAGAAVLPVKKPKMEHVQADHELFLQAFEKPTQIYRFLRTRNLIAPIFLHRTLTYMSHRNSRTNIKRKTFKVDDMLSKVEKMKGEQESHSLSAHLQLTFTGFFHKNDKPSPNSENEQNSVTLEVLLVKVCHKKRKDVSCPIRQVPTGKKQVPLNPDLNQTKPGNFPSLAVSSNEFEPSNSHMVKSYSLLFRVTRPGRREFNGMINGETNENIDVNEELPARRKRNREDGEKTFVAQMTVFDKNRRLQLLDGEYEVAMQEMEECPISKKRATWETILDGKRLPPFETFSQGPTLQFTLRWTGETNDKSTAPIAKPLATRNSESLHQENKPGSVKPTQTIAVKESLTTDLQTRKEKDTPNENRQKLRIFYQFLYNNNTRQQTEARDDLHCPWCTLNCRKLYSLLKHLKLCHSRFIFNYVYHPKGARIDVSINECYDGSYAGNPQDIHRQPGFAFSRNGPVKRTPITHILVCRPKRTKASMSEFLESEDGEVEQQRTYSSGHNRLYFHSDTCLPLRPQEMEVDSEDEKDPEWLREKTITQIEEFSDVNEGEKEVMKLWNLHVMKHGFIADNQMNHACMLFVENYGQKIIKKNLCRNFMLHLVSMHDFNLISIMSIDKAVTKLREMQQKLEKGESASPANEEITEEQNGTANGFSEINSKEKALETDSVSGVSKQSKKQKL

On to `COc1cccc2c1C(=O)c1c(O)c3c(c(O)c1C2=O)C[C@@](O)(C(=O)CO)C[C@@H]3O[C@H]1C[C@H](N)[C@H](O)[C@H](C)O1` [doxorubicin], for which, in data set [1], the “expression of lncRNAs surrounding the CDKN1A TSS” value is given as “all five of the tested lncRNAs surrounding the CDKN1A TSS were induced” and the “induction of Upst:CDKN1A:−4,845 (PANDA) upon DNA damage” value was “up to 40 fold”. The “apoptosis as measured by TUNEL” value in data set [2] is reported as “little to no apoptosis”. For the same compound, the “ncRNAs with at least two-fold change” value in data set [3] is recorded as 12 of the 216.
On to “PANDA: P21-Associated NcRNA, DNA damage Activated; 1.5-kb long non-coding RNA”, for which, in the data set with NF-YA [4], the “retrieval of NF-YA from cellular lysates” value is “specifically retrieved”. Moreover, the “retrieval of EZH2” value in the data set with EZH2 is “did not retrieve”. For the same compound, the “retrieval of p21” value with p21 is on record as “did not retrieve”. Besides, the “retrieval of LSD1” value with LSD1 was “did not retrieve”. For the same compound, the “retrieval of endogenous PANDA by immunoprecipitation of NF-YA” value in the data set with NF-YA [5] was “specifically retrieved”.

The values above are taken from patent US9062351B2, “Diagnostic, prognostic and therapeutic uses of long non-coding RNAs for cancer and regenerative medicine” (The Board of Trustees of the Leland Stanford Junior …, priority 2011, dated 2015).
